Results from publication PMC6437697 (Journal of Medicinal Chemistry, 2019).

Key:
Assay in all cases: KINOMEscan
Assay type in all cases: binding
Conditions in all cases: read-out: % control activity remaining
[1] = target: T1, CDK3 (Homo sapiens, UniProt Q00526)
T1 construct: purchased Eurofins DiscoverX KINOMEscan

[2] = target: T2, CSK (Homo sapiens, UniProt P41240)
T2 construct: purchased Eurofins DiscoverX KINOMEscan

[3] = target: T3, MAP3K1 (Homo sapiens, UniProt Q13233)
T3 construct: purchased Eurofins DiscoverX KINOMEscan
T3 sequence (Q13233 whole entry): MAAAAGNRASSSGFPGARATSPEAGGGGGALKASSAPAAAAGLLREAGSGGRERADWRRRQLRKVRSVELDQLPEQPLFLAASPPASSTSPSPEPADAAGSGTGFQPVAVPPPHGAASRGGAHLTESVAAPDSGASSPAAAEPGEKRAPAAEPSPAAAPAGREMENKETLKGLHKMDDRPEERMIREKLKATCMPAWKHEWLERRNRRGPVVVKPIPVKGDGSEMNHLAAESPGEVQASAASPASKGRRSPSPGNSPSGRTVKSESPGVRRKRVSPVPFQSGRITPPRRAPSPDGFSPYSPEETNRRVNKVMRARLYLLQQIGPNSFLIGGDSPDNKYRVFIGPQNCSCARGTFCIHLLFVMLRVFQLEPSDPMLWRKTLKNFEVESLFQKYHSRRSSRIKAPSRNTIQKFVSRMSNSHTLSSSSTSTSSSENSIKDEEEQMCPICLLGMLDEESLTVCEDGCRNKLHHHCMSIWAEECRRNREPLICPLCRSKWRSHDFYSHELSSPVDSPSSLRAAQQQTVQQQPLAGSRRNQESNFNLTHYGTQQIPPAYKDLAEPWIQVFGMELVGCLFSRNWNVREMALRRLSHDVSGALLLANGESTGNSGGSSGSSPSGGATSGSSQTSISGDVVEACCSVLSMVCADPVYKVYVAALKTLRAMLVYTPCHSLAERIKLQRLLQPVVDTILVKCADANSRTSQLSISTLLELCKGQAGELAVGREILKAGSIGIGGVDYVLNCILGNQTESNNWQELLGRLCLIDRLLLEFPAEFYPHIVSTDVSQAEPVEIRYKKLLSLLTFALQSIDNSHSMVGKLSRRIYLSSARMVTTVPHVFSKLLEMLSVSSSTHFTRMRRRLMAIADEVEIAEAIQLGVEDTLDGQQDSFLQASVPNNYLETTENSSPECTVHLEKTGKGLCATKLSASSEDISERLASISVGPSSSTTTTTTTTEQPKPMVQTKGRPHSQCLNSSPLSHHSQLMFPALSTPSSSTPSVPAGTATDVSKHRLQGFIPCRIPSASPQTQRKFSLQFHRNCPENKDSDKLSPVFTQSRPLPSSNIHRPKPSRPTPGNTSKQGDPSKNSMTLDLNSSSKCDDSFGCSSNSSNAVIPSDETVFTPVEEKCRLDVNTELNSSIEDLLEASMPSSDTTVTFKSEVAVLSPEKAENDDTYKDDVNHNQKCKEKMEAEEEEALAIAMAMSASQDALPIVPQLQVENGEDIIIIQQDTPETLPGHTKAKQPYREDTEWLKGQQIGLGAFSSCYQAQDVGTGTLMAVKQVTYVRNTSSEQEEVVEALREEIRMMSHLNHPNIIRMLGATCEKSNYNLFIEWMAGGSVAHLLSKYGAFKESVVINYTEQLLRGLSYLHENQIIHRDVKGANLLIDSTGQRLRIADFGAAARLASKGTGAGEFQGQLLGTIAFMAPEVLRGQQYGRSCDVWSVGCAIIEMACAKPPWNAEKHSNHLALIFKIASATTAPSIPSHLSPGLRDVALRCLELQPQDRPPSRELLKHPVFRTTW

[4] = target: T4, BMX (Homo sapiens, UniProt P51813)
T4 construct: purchased Eurofins DiscoverX KINOMEscan
T4 sequence (P51813 1-675): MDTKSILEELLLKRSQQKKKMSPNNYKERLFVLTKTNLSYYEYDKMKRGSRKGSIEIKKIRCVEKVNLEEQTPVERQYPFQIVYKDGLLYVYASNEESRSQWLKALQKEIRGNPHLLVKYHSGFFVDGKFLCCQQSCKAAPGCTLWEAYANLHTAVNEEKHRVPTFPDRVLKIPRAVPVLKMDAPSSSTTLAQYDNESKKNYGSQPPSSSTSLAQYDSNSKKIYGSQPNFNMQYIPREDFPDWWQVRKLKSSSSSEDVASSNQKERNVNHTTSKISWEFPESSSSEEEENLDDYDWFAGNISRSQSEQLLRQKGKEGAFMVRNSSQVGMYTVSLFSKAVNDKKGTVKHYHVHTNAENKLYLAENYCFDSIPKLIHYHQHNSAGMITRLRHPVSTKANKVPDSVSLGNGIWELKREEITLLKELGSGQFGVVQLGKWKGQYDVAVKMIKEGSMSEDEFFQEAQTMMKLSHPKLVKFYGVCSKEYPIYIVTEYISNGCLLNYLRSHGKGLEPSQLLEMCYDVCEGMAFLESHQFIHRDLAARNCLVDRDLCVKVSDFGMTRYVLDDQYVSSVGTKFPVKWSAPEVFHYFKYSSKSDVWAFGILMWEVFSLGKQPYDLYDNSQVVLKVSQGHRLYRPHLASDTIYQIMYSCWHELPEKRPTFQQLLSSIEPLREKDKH

[5] = target: T5, CDK9 (Homo sapiens, UniProt P50750)
T5 construct: purchased Eurofins DiscoverX KINOMEscan
T5 sequence (P50750 whole entry): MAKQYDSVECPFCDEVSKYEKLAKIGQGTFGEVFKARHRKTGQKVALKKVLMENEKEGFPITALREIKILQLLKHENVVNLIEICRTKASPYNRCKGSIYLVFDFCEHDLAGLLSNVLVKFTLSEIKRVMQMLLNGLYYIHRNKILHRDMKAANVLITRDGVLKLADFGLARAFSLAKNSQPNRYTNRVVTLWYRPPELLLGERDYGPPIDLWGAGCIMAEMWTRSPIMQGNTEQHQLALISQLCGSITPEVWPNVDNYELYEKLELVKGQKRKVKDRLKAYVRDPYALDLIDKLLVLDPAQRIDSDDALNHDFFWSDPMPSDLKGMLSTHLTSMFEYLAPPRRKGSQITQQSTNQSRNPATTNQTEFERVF

[6] = target: T6, RSK1(Kin.Dom.2-C-terminal) (Homo sapiens, UniProt Q15418)
T6 construct: RSK1(Kin.Dom.2-C-terminal); purchased Eurofins DiscoverX KINOMEscan
T6 sequence (Q15418 418-675 limits assumed): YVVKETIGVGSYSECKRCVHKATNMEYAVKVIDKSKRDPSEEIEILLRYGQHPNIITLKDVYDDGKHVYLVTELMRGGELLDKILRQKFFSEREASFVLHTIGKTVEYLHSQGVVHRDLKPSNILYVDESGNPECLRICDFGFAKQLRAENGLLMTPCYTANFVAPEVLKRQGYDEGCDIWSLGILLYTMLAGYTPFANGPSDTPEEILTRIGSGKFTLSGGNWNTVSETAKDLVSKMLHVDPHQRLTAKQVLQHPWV

[7] = target: T7, JNK3 (Homo sapiens, UniProt P53779)
T7 construct: purchased Eurofins DiscoverX KINOMEscan
T7 sequence (P53779 whole entry): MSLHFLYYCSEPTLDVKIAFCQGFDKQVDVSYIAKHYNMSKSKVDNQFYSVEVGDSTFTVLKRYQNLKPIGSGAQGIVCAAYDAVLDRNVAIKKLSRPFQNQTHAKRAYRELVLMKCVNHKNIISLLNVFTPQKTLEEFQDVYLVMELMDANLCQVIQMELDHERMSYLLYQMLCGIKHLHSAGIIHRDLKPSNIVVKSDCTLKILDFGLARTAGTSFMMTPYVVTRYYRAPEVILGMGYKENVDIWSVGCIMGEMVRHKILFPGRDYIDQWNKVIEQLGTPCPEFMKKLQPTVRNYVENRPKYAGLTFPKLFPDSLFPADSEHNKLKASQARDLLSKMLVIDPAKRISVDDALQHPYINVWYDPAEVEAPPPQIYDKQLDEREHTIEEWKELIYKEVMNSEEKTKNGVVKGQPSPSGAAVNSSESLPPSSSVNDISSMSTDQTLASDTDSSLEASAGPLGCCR

[8] = target: T8, YSK4 (Homo sapiens, UniProt Q56UN5)
T8 construct: purchased Eurofins DiscoverX KINOMEscan
T8 sequence (Q56UN5 1-1328): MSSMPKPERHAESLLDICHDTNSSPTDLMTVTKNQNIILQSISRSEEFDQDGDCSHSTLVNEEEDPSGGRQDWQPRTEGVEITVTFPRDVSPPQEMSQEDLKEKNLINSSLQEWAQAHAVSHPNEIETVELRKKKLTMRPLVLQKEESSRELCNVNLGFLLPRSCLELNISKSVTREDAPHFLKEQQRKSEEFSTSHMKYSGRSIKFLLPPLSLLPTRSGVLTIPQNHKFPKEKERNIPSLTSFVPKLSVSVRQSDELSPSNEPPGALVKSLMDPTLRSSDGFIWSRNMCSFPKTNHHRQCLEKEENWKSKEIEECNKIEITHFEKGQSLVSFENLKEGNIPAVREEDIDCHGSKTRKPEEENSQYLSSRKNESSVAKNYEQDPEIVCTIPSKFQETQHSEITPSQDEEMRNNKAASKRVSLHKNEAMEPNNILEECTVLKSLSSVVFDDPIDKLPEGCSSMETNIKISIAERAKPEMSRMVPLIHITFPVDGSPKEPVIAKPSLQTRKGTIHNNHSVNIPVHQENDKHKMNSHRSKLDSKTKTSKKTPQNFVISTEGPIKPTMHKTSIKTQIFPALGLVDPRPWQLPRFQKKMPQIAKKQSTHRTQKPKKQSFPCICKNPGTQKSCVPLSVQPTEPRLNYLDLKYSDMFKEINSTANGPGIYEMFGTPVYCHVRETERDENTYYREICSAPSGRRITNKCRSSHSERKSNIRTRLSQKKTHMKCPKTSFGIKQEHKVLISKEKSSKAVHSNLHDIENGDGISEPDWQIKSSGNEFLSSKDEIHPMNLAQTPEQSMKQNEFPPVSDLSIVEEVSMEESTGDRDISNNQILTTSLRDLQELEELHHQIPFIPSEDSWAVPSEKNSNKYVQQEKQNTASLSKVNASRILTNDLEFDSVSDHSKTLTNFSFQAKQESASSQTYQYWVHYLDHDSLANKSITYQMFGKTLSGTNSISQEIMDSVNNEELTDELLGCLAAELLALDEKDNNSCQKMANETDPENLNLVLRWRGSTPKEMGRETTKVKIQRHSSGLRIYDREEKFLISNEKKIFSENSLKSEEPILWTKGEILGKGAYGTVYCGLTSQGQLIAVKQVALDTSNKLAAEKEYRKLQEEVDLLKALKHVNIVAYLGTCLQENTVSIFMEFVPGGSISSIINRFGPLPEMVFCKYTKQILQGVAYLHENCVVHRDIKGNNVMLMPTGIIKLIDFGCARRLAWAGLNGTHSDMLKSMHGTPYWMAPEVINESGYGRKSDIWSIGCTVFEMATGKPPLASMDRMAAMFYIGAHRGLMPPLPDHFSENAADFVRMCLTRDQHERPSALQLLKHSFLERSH

[9] = target: T9, HCK (Homo sapiens, UniProt P08631)
T9 construct: purchased Eurofins DiscoverX KINOMEscan
T9 sequence (P08631 whole entry): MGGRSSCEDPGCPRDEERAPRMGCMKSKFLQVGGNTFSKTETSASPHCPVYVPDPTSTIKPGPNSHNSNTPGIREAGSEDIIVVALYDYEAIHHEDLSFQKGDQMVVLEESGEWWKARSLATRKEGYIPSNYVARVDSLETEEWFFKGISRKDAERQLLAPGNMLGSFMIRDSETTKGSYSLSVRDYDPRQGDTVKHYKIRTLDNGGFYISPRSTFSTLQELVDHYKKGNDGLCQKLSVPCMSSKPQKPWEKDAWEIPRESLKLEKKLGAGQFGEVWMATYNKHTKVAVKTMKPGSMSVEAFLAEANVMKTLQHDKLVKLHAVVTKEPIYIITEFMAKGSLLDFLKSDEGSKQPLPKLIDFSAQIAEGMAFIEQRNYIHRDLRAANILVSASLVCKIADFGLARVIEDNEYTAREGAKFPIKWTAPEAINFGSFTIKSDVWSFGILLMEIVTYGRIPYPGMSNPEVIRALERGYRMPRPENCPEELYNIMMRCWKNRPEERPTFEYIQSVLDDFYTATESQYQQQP

[10] = target: T10, SGK2 (Homo sapiens, UniProt Q9HBY8)
T10 construct: purchased Eurofins DiscoverX KINOMEscan
T10 sequence (Q9HBY8 1-367): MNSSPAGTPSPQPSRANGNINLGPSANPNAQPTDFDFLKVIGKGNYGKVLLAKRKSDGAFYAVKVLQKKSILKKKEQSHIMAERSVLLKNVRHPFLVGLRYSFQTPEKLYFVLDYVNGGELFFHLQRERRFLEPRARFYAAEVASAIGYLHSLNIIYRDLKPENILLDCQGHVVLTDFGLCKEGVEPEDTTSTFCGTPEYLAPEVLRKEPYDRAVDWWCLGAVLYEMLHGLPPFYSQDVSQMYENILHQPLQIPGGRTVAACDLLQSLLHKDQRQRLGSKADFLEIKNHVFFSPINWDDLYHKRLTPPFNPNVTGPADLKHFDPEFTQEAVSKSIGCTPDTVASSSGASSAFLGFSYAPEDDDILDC

T2 sequence (P41240 whole entry): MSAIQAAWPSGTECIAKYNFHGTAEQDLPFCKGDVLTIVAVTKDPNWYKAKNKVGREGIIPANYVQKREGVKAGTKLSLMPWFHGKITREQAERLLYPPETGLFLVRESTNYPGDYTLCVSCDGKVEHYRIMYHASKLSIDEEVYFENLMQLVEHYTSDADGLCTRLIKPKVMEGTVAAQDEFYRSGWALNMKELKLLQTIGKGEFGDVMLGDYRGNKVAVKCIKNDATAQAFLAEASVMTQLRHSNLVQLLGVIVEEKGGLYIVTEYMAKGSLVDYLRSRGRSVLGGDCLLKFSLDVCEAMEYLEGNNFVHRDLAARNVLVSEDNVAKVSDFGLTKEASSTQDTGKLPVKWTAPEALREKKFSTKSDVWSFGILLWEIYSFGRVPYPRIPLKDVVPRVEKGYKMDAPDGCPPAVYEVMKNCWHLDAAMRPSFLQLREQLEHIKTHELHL
T1 sequence (Q00526 whole entry): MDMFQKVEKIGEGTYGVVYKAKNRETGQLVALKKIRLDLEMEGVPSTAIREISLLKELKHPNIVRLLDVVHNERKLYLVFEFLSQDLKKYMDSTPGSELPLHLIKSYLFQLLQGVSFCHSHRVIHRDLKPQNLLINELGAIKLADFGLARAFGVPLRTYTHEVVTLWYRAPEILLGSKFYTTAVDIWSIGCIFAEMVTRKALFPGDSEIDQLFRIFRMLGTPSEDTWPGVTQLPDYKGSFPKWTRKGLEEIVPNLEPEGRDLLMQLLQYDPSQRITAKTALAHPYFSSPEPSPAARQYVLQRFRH

SMILES	remaining binding at 1 µM [1] [%]	remaining binding at 1 µM [2] [%]	remaining binding at 1 µM [3] [%]	remaining binding at 1 µM [4] [%]	remaining binding at 1 µM [5] [%]	remaining binding at 1 µM [6] [%]	remaining binding at 1 µM [7] [%]	remaining binding at 1 µM [8] [%]	remaining binding at 1 µM [9] [%]	remaining binding at 1 µM [10] [%]
Clc1cc(NCC2CC2)c2ncc(-c3ccc4[nH]ncc4c3)n2n1 [compound 2, 6-Chloro-N-(cyclopropylmethyl)-3-(1H-indazol-5-yl)imidazo[1,2-b]pyridazin-8-amine]	95	100	99	96	98	83	89	45	80	89
O=C(CN1CCOCC1)N[C@H]1CC[C@H](Nc2cc(Cl)nn3c(-c4ccc5[nH]ncc5c4)cnc23)CC1 [compound 26]	90	94	92	92	43	59	79	23	93	100
CN1CCC(CNc2cc(Cl)nn3c(-c4cc5nc(Nc6ccccc6)[nH]c5cc4F)cnc23)CC1 [compound 31, 6-Chloro-3-(6-fluoro-2-(phenylamino)-1H-benzo[d]imidazol-5-yl)-N-((1-methylpiperidin-4-yl)methyl)imidazo[1,2-b]pyridazin-8-amine]	97	98	89	100	95	96	99	77	87	83
